What was measured:
[1] = system: AVPR-LIDAR and CX3CR1-LIDAR; experiment: orthogonal ChaCha-like LIDAR receptors (AVPR-LIDAR and CX3CR1-LIDAR) in the same cell; assay type: cell-based, human; settings: MCP/MS2 reporter outputs EGFP, PCP/PP7 reporter outputs mTagBFP; FIG. 10K
Description: To maintain a fast design-build-test cycle, unless specified, all prototyping experiments were performed by transiently co-transfecting receptor-encoding DNA plasmids into human embryonic kidney (HEK) 293 cells.
To program more complex multi-cellular behaviors, as well as to integrate multiple inputs for targeted cell therapies, it is often required to have receptors that process orthogonal signals in the same cell. In our most commonly used configuration (Tango-like LIDAR), the β-arrestin2-RBP fusion protein is recruited to all GPCRs without discrimination. This means that with two different GPCR-LIDAR receptors (e.g., AVPR-based LIDAR and CX3CR1-based LIDAR) the system would only be able to produce one output, triggered by either ligand. In the inverted version, the ADAR2dd and the RBP are interchanged to obtain the GPCR-RBP and β-arrestin2-ADAR2dd fusion proteins, analogous to TANGO vs. ChaCha receptors (25) (FIG. 10J). Because a separate RBP is needed for each receptor. MCP was used for a reporter RNA harboring MS2 loops and outputting EGFP and PP7 bacteriophage coat protein (PCP) for a reporter RNA harboring PP7 loops and outputting mTagBFP.

[2] = system: CCR6-based LIDAR outputting iCASP9 (cLSM01-C5 cells); experiment: LIDAR-induced cell apoptosis with iCASP9 output in stable cell line cLSM01-C5; assay type: cell-based; settings: only when both CCL20 and AP1903 are present; flow cytometry and microscopy; FIG. 9F
Description: In terms of generalizing functional outputs, LIDAR was used to output iCASP9 as a ligand-dependent cell death controller (13) (FIG. 9E), as iCASP9 induces apoptosis in response to the dimerizing molecule AP1903. A monoclonal cell line was generated (cLSM01-C5) expressing all three components of CCR6-based LIDAR by stable PiggyBac integrations. […] Another functional output was then tested, tobacco etch virus (TEV) protease, given our expertise (14) and its broad use (15) in synthetic circuits. A LIDAR-produced TEV protease rescues a fluorescent protein linked via a TEV protease cleavage site to a degron (FIG. 9G). Its dose response curve resembles that of the corresponding LIDAR that directly outputs EGFP (FIG. 9H and FIG. 13F). […] This indicates the potential for LIDAR to be implemented in more complex circuits (16).

[3] = target: T1, CCR6-based LIDAR (Homo sapiens, UniProt P51684); experiment: CCR6-based LIDAR sensing of secreted or membrane-bound CCL20 from sender cells; assay type: cell-based; settings: conditioned media from CCL20-secreting cells or co-culture with cells displaying CCL20; FIG. 10A-D
T1 construct: ADAR2dd (deaminase domain of ADAR2); expressed in transfected cells; host or cells: HEK293 (receiver cells)
T1 sequence (P51684 whole entry, the tested form may be a part): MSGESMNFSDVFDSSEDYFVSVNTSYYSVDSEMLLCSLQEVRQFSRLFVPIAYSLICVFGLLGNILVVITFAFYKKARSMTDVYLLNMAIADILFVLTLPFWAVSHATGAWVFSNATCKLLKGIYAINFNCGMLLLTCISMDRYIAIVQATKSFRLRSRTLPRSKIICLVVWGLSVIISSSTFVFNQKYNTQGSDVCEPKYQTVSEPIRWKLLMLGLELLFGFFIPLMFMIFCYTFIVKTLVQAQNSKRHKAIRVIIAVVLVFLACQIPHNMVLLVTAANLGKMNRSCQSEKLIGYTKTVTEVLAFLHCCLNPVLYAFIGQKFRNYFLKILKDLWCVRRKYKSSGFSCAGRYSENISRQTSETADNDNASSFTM
T1 sequence (P32121 whole entry partner, the tested form may be a part): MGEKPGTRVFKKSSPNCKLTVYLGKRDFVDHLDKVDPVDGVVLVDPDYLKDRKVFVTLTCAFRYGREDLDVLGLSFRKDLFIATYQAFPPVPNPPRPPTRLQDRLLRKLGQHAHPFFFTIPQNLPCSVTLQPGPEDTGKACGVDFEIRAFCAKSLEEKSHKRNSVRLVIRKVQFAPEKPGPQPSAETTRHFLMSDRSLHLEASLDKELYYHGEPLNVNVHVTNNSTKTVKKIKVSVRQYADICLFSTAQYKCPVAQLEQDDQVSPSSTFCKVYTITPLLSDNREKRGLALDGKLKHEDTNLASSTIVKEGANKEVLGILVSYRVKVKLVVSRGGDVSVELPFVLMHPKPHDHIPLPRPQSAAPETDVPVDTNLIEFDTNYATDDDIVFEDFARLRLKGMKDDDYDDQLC
From the text: Inspired by examples from synNotch (19, 20) and given the advantage that LIDAR could potentially sense both membrane-bound and soluble ligands. LIDAR was used to drive cell-cell interactions to ultimately program complex multicellular behaviors (21-23). CCR6-based LIDAR senses its ligand, CCL20 (FIG. 10A-D), when the receiver cells are either exposed to conditioned media from CCL20-secreting cells (FIG. 10A, B) or co-cultured with cells displaying CCL20 on their surface (FIG. 10C, D). […] Receiver cells surrounding cells that produce secreted ligands were plated (FIG. 10E), a response gradient was observed going from the sender cells outwards (FIG. 10F). In contrast, when the receiver cells with sender cells producing a membrane-bound ligand were tested, the response pattern is limited to the sender-receiver interface (FIG. 10G, H). The images were quantified to extract the LIDAR output intensity profiles in response to membrane-bound and secreted ligands.

[4] = target: GPCR fused to MCP (inverted GPCR LIDAR design; GPCRs not named); experiment: cell-based or functional assay

Molecule	output produced by each ligand in the same cell [1]	cell death [2]	other results
NC(=O)CC[C@@H]1NC(=O)[C@H](Cc2ccccc2)NC(=O)[C@H](Cc2ccc(O)cc2)NC(=O)[C@@H](N)CSSC[C@@H](C(=O)N2CCC[C@H]2C(=O)N[C@@H](CCCN=C(N)N)C(=O)NCC(N)=O)NC(=O)[C@H](CC(N)=O)NC1=O [AVP, Arginine vasopressin, reference compound]	EGFP exclusively		
CCL20: chemokine, GPCR ligand of CCR6		Substantial cell death	ligand sensing by receiver cells [3]: senses
β-arrestin2-ADAR2dd (inverted / ChaCha-like LIDAR) (from UniProt P32121 1-409; P78563 299-701)			fold activation of inverted GPCR LIDAR [4]: < 17 ×
CC[C@H](C(=O)N1CCCC[C@H]1C(=O)O[C@H](CCc1ccc(OC)c(OC)c1)c1cccc(OCC(=O)NCCNC(=O)COc2cccc([C@@H](CCc3ccc(OC)c(OC)c3)OC(=O)[C@@H]3CCCCN3C(=O)[C@@H](CC)c3cc(OC)c(OC)c(OC)c3)c2)c1)c1cc(OC)c(OC)c(OC)c1 [AP1903, reference compound]		Substantial cell death	
CX3CL1: ligand of CX3CR1-LIDAR (protein) QHHGVTKCNITCSKMTSKIPVALLIHYQQNQASCGKRAIILETRQHRLFCADPKEQWVKDAMQHLDRQAAALTRNG	mTagBFP exclusively		

From patent US20260049331A1, “Sense-and-Response of Proteins, Peptides, and Small Molecules Using Ligand-Induced Dimerization Activating RNA Editing (LIDAR)” (The Board of Trustees of the Leland Stanford Junior …, priority 2022, published 2026)
